Laboratory results: patent US7125990B2, “Imidazolyl derivatives as corticotropin releasing factor inhibitors” (Bristol-Myers Squibb COmpany, priority 2001, dated 2006)

What follows are molecules tested against T1, CRF1 receptors (Homo sapiens, UniProt P34998) (assay: CRF1 receptor radioligand binding assay ([125I]-oCRF competition, IMR-32 cell membranes)). Conditions: IMR-32 cell membranes, [125I]-oCRF 100 pM; read-out: Ki (CRF-1R).
T1 construct: endogenous in cells; host or cells: IMR-32 cells, transformed with 2.5 µM 5'-bromo-2'-deoxyuridine for 10 days; membrane preparation
T1 sequence (P34998 24-415): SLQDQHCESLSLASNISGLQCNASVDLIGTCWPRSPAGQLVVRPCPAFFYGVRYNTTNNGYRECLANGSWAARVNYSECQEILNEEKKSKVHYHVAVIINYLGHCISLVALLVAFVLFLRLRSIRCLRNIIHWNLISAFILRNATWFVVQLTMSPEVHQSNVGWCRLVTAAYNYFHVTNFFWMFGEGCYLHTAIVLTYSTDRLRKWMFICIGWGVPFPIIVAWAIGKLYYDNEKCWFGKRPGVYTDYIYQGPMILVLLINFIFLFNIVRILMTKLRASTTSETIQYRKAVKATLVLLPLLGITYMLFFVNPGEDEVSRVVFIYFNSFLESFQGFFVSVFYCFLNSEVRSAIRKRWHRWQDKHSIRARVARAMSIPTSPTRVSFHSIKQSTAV
Procedure, shortened: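 Buffer: Tris pH 7.2 with MgCl2, BSA, Triton X-100, aprotinin, leupeptin; reaction stopped with ice-cold wash and filtered. Nonspecific binding set with 10 μM oCRF.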

Row | Compound | Ki [µM]
1 | CC(C)c1ccc(-n2c3ccccc3n3c(CN(CCC(F)(F)F)Cc4ccccc4)c(C(F)(F)F)nc23)c(Br)c1 [Example 202, Benzyl-[8-(2-bromo-4-isopropyl-phenyl)-2-trifluoromethyl-8H-1,3a,8-triaza-cyclopenta[α]inden-3-ylmethyl]-(3,3,3-trifluoro-propyl)-amine] | < 10
2 | CCCCN(CC)Cc1c(C(F)(F)F)nc2n(-c3ccc(C(C)C)cc3Br)c3ccccc3n12 [Example 203, [8-(2-Bromo-4-isopropyl-phenyl)-2-trifluoromethyl-8H-1,3a,8-triaza-cyclopenta[α]inden-3-ylmethyl]-butyl-ethyl-amine] | < 10
3 | CC(C)c1ccc(-n2c3ccccc3n3c(CN(CCC4CC4)CC(F)(F)F)c(C(F)(F)F)nc23)c(Br)c1 [Example 204, [8-(2-Bromo-4-isopropyl-phenyl)-2-trifluoromethyl-8H-1,3a,8-triaza-cyclopenta[α]inden-3-ylmethyl]-(2-cyclopropyl-ethyl)-(2,2,2-trifluoro-ethyl)-amine] | < 10
4 | CCCN(Cc1c(C(F)(F)F)nc2n(-c3ccc(C(C)C)cc3Br)c3ccccc3n12)CC(F)(F)C(F)(F)F [Example 205, [8-(2-Bromo-4-isopropyl-phenyl)-2-trifluoromethyl-8H-1,3a,8-triaza-cyclopenta[α]inden-3-ylmethyl]-(2,2,3,3,3-pentafluoro-propyl)-propyl-amine] | < 10
5 | CCCN(CCC)Cc1c(C(F)(F)F)nc2n(-c3ccc(C(C)C)cc3Br)c3ccccc3n12 [Example 206, [8-(2-Bromo-4-isopropyl-phenyl)-2-trifluoromethyl-8H-1,3a,8-triaza-cyclopenta[α]inden-3-ylmethyl]-dipropyl-amine] | < 10
6 | CCN(CCC1CC1)Cc1c(C(F)(F)F)nc2n(-c3ccc(C(C)C)cc3Br)c3ccccc3n12 [Example 207, [8-(2-Bromo-4-isopropyl-phenyl)-2-trifluoromethyl-8H-1,3a,8-triaza-cyclopenta[α]inden-3-ylmethyl]-(2-cyclopropyl-ethyl)-ethyl-amine] | < 10
7 | CCN(Cc1ccccc1)Cc1c(C(F)(F)F)nc2n(-c3ccc(C(C)C)cc3Br)c3ccccc3n12 [Example 208, Benzyl-[8-(2-bromo-4-isopropyl-phenyl)-2-trifluoromethyl-8H-1,3a,8-triaza-cyclopenta[α]inden-3-ylmethyl]-ethyl-amine] | < 10
8 | CCCN(Cc1ccccc1)Cc1c(C(F)(F)F)nc2n(-c3ccc(C(C)C)cc3Br)c3ccccc3n12 [Example 209, Benzyl-[8-(2-bromo-4-isopropyl-phenyl)-2-trifluoromethyl-8H-1,3a,8-triaza-cyclopenta[α]inden-3-ylmethyl]-propyl-amine] | < 10
9 | Cc1cc(C)c(-n2c3ncccc3n3c(CN(CCC(F)(F)F)Cc4ccccc4)c(C(F)(F)F)nc23)c(C)c1 [Example 227, Benzyl-[2-trifluoromethyl-8-(2,4,6-trimethyl-phenyl)-8H-1,3a,7,8-tetraaza-cyclopenta[α]inden-3-ylmethyl]-(3,3,3-trifluoro-propyl)-amine] | < 1
10 | Cc1cc(C)c(-n2c3ncccc3n3c(CN(C)Cc4ccccc4)c(C(F)(F)F)nc23)c(C)c1 [Example 228, Benzyl-methyl-[2-trifluoromethyl-8-(2,4,6-trimethyl-phenyl)-8H-1,3a,7,8-tetraaza-cyclopenta[α]inden-3-ylmethyl]-amine] | < 1
11 | CCN(CCC1CC1)Cc1c(C(F)(F)F)nc2n(-c3c(C)cc(C)cc3C)c3ncccc3n12 [Example 229, (2-Cyclopropyl-ethyl)-ethyl-[2-trifluoromethyl-8-(2,4,6-trimethyl-phenyl)-8H-1,3a,7,8-tetraaza-cyclopenta[α]inden-3-ylmethyl]-amine] | < 1

Continued, values first:

Row | Ki [µM] | Compound
12 | < 0.1 | Cc1cc(C)c(-n2c3ncccc3n3c(CN(CC4CC4)CC(F)(F)F)c(C(F)(F)F)nc23)c(C)c1 [Example 210, Cyclopropylmethyl-(2,2,2-trifluoro-ethyl)-[2-trifluoromethyl-8-(2,4,6-trimethyl-phenyl)-8H-1,3a,7,8-tetraaza-cyclopenta[α]inden-3-ylmethyl]-amine]
13 | < 0.1 | Cc1cc(C)c(-n2c3ncccc3n3c(CN(CC4CC4)CC(F)(F)C(F)(F)F)c(C(F)(F)F)nc23)c(C)c1 [Example 212, Cyclopropylmethyl-(2,2,3,3,3-pentafluoro-propyl)-[2-trifluoromethyl-8-(2,4,6-trimethyl-phenyl)-8H-1,3a,7,8-tetraaza-cylopenta[α]inden-3-ylmethyl]-amine]
14 | < 0.1 | Cc1cc(C)c(-n2c3ncccc3n3c(CN(CCC(F)(F)F)CC4CC4)c(C(F)(F)F)nc23)c(C)c1 [Example 213, Cyclopropylmethyl-[2-trifluoromethyl-8-(2,4,6-trimethyl-phenyl)-8H-1,3a,7,8-tetraaza-cyclopenta[α]inden-3-ylmethyl]-(3,3,3-trifluoro-propyl)-amine]
15 | < 0.1 | Cc1cc(C)c(-n2c3ncccc3n3c(CN(CC4CC4)CC4CC4)c(C(F)(F)F)nc23)c(C)c1 [Example 214, Bis-cyclopropylmethyl-[2-trifluoromethyl-8-(2,4,6-trimethyl-phenyl)-8H-1,3a,7,8-tetraaza-cyclopenta[α]inden-3-ylmethyl]-amine]
16 | < 0.1 | CCCN(Cc1c(C(F)(F)F)nc2n(-c3c(C)cc(C)cc3C)c3ncccc3n12)CC1CCC1 [Example 215, Cyclobutylmethyl-propyl-[2-trifluoromethyl-8-(2,4,6-trimethyl-phenyl)-8H-1,3a,7,8-tetraaza-cyclopenta[α]inden-3-ylmethyl]-amine]
17 | < 0.1 | Cc1cc(C)c(-n2c3ncccc3n3c(CN(CC4CCC4)CC(F)(F)F)c(C(F)(F)F)nc23)c(C)c1 [Example 216, Cyclobutylmethyl-(2,2,2-trifluoro-ethyl)-[2-trifluoromethyl-8-(2,4,6-trimethyl-phenyl)-8H-1,3a,7,8-tetraaza-cyclopenta[α]inden-3-ylmethyl]-amine]
18 | < 0.1 | CCCN(CCc1ccccc1)Cc1c(C(F)(F)F)nc2n(-c3c(C)cc(C)cc3C)c3ncccc3n12 [Example 217, Phenethyl-propyl-[2-trifluoromethyl-8-(2,4,6-trimethyl-phenyl)-8H-1,3a,7,8-tetraaza-cyclopenta[α]inden-3-ylmethyl]-amine]
19 | < 1 | CCN(CCc1ccccc1)Cc1c(C(F)(F)F)nc2n(-c3c(C)cc(C)cc3C)c3ncccc3n12 [Example 218, Ethyl-phenethyl-[2-trifluoromethyl-8-(2,4,6-trimethyl-phenyl)-8H-1,3a,7,8-tetraaza-cyclopenta[α]inden-3-ylmethyl]-amine]
20 | < 1 | C=CCN(CC=C)Cc1c(C(F)(F)F)nc2n(-c3c(C)cc(C)cc3C)c3ncccc3n12 [Example 219, Diallyl-[2-trifluoromethyl-8-(2,4,6-trimethyl-phenyl)-8H-1,3a,7,8-tetraaza-cyclopenta[α]inden-3-ylmethyl]-amine]
21 | < 1 | C=CCN(CCC)Cc1c(C(F)(F)F)nc2n(-c3c(C)cc(C)cc3C)c3ncccc3n12 [Example 220, Allyl-propyl-[2-trifluoromethyl-8-(2,4,6-trimethyl-phenyl)-8H-1,3a,7,8-tetraaza-cyclopenta[α]inden-3-ylmethyl]-amine]
22 | < 1 | CCCN(CCC(F)(F)F)Cc1c(C(F)(F)F)nc2n(-c3c(C)cc(C)cc3C)c3ncccc3n12 [Example 221, Propyl-[2-trifluoromethyl-8-(2,4,6-trimethyl-phenyl)-8H-1,3a,7,8-tetraaza-cyclopenta[α]inden-3-ylmethyl]-(3,3,3-trifluoro-propyl)-amine]
23 | < 1 | CCCN(Cc1c(C(F)(F)F)nc2n(-c3c(C)cc(C)cc3C)c3ncccc3n12)CC(F)(F)F [Example 222, Propyl-(2,2,2-trifluoro-ethyl)-[2-trifluoromethyl-8-(2,4,6-trimethyl-phenyl)-8H-1,3a,7,8-tetraaza-cyclopenta[α]inden-3-ylmethyl]-amine]
24 | < 1 | CCN(Cc1c(C(F)(F)F)nc2n(-c3c(C)cc(C)cc3C)c3ncccc3n12)CC1CC1 [Example 223, Cyclopropylmethyl-ethyl-[2-trifluoromethyl-8-(2,4,6-trimethyl-phenyl)-8H-1,3a,7,8-tetraaza-cyclopenta[α]inden-3-ylmethyl]-amine]
25 | < 1 | CCCN(Cc1c(C(F)(F)F)nc2n(-c3c(C)cc(C)cc3C)c3ncccc3n12)CC(F)(F)C(F)(F)F [Example 224, (2,2,3,3,3-Pentafluoro-propyl)-propyl-[2-trifluoromethyl-8-(2,4,6-trimethyl-phenyl)-8H-1,3a,7,8-tetraaza-cyclopenta[α]inden-3-ylmethyl]-amine]
26 | < 1 | Cc1cc(C)c(-n2c3ncccc3n3c(CN(CCC4CC4)CCC(F)(F)F)c(C(F)(F)F)nc23)c(C)c1 [Example 225, (2-Cyclopropyl-ethyl)-[2-trifluoromethyl-8-(2,4,6-trimethyl-phenyl)-8H-1,3a,7,8-tetraaza-cyclopenta[α]inden-3-ylmethyl]-(3,3,3-trifluoro-propyl)-amine]
27 | < 1 | Cc1cc(C)c(-n2c3ncccc3n3c(CN(CCc4ccccc4)CCC(F)(F)F)c(C(F)(F)F)nc23)c(C)c1 [Example 226, Phenethyl-[2-trifluoromethyl-8-(2,4,6-trimethyl-phenyl)-8H-1,3a,7,8-tetraaza-cyclopenta[a]inden-3-ylmethyl]-(3,3,3-trifluoro-propyl)-amine]
